How the values were obtained:
[1] = system: stress ulcer of rats induced by water soaking; experiment: Effect to stress ulcer (Takagi's method, water soaking); type: in vivo, Rats(SD); conditions: 100 mg/kg qd × 2
Protocol: The model was established following Takagi's method. Takagi, et al., The Effects of Drugs on the production and Recovery Processes of the Stress Ulcer, 18:9-18 (1968); and Takagi et al., A New Method For The Production of Chronic Gastric Ulcer in Rats and The Effect of Several Drugs on its Healing, Japan J. Pharmacol Japan J. Pharmacol 19:418-426 (1969). Fifty rats, 159+13 g, male and female half and half, were randomly divided into five groups according to sex and weight and were administered with drugs daily twice, once both in the morning and afternoon for two days. From the beginning of the experiments, food was abstained but water was freely fed. One hour after the last administration, rats were bound on a board and were soaked in a thermostatic flowing water bath at […] for 18 hr then were executed by decapitation. Take out the stomach by abdominal section and ligate the pylorus first then inject 10 ml of 1% formaldehyde solution through cardia of stomach and ligate the cardia. After formalizing the stomach in 1% formaldehyde solution for 10 min, the stomach was cut along the greater curvature with scissor, rinse with normal saline solution for three times and absorb with filter paper, then flatten it on a glass plate and examine the degree of mucosa ulcer and count the number using magnifier. […]

[2] = system: pyloric ligation ulcer; experiment: Effect to the ulcer of pyloric ligation (Shay's method); type: in vivo, Rats(SD); conditions: rats; dose 200
Protocol: The experiment is conducted following Shay's method. Fifty rats, 190+20 g, male and female half and half, were randomly divided into five groups according to weight and sex and were administered as 1-1 for three days. Food was abstained but water was freely fed before 48 hr of the operation. After 2 hr of the last administration, operation of pyloric ligation was conducted then both food and water were abstained. After 48 hr the rats were executed and their gastric juice was collected for measuring the volume, and determining the free acid, total acid and pepsin following Metle's method.

[3] = system: chronic gastric ulcer caused by acetic acid burn; experiment: Chronic gastric ulcer of rats caused by acetic acid burn (adapted Takagi's method); type: in vivo, Rats(SD); conditions: 200 mg/kg × 12 day ig qd
Protocol: The experiment was conducted using adapted Takagi's method. Fifty rats, 165+15 g, male and female half and half, after abstaining food without abstaining water for 24 hr, were primary anesthetized with ether and their skin were sterilized as regular method. After abdominal section the stomach was gently pulled out. A small glass tube with 0.5 cm inner diameter and 3 cm length was inserted into the stomach near the lesser curvature stomach gland of pylorus using middle finger to resist against the opposite stomach wall. 0.1 ml acetic acid was injected into stomach through the glass tube. After 30 sec counting with stopwatch, acetic acid was sucked out and the stomach was rinsed with sterilized normal saline for three times. Remove out the glass tube and absorb the normal saline on its external surface with sterilized filter paper the stomach was put into the abdomen then sew up the wound and sterilize. The rats was randomly divided into 5 groups according to sex and weight on the second day of operation. The rats were administered with drug ig qd×12 day, after abstaining food overnight then were executed by decapitation. The ulcer volumes were measured using the method of injection ink with a micro syringe.

[4] = system: gastric ulcer induced by Reserpine; experiment: Gastric ulcer of rats induced by Reserpine; type: in vivo, Rats(SD); conditions: 200.0 mg/kg ig once daily for three days, Reserpine 5 mg/kg sc
Protocol: Fifty rats, 180±18 g, male and female half and half, were divided into five groups and were treated with drug ig once daily for three days. After abstaining food for 24 hr Reserpine 5 mg/kg was injected subcutaneously. The rats were executed by decapitation after 18 hr and the gastric ulcer was examined as the same method of 1-1.

[5] = system: ulcer induced by Histamine; experiment: Ulcer of mice induced by Histamine; type: in vivo, Mice(ICR); conditions: 200 mg/kg bid × 2 ig, Histamine 80 mg/kg ip
Protocol: Forty mice, male 23±2 g, were divided into five groups, and were administrated once both in the morning and afternoon of everyday by ig. Mice were abstained to feed food for 24 hr except water, then administered Histamine 80 mg/kg, ip, after abstaining food for 8 hr were executed. Take out the stomachs and examine ulcer index using the same method as 1-1.

## CNC(=C[N+](=O)[O-])NCCSCc1ccc(CN(C)C)o1.Cl [Ranitidine, Ranitidine hydrochloride]
[1]
  rate of inhibition (%): 41.5%
  ulcer index (x ± SD): 2.14 ± 0.46
[2]
  ulcer index: 1.22 ± 1.44
[3]
  rate of inhibition (%): 50.7%
  ulcer volume (μl, × ± SD): 1.72 ± 1.46 µL
[4]
  rate of inhibition (%): 78.2%
  ulcer index (x ± SD): 7.6 ± 2.0
[5]
  rate of inhibition (%): 87.8%
  ulcer index (x ± SD): 1.4 ± 3.5

Reference: patent publication US6344219B1, “Chinese drug composition for treatment of peptic ulcer and preparation thereof” (priority 1995, dated 2002)
